Measurements: ChEMBL document CHEMBL5537113, “Discovery of 1,2-diaryl-3-oxopyrazolidin-4-carboxamides as a new class of MurA enzyme inhibitors and characterization of their antibacterial activity” (Eur J Med Chem, 2023)
Calls of active or inactive are those of the source. The calls are words filed in the database; no cut-off is given here.

How the values were obtained:
[1] = Drug uptake in Escherichia coli harboring tolC deletion mutant assessed per 1.6x10^9 cells at 10 uM incubated for 30 mins by LC analysis; format: ADME; conditions: 0.5 h
[2] = system: UDP-N-acetylglucosamine 1-carboxyvinyltransferase (Escherichia coli K-12), P0A749 [C115D]; assay: Inhibition of Escherichia coli MurA C115D mutant using UNAG as substrate pre incubated for 15 mins followed by substrate addition and measured after 15 mins by microplate reader analysis; conditions: time 30.0 min
[3] = Drug uptake in Escherichia coli harboring tolC deletion mutant at 10 uM incubated for 30 mins by LC analysis; format: ADME; conditions: 0.5 h
[4] = target: UDP-N-acetylglucosamine 1-carboxyvinyltransferase (Escherichia coli K-12, UniProt P0A749); assay: Inhibition of Escherichia coli K12 His-tagged MurA expressed in Escherichia coli BL21 cells using UNAG as substrate pre incubated for 15 mins followed by substrate addition and measured after 15 mins by microplate reader analysis
[5] = target: UDP-N-acetylglucosamine 1-carboxyvinyltransferase (Escherichia coli K-12, UniProt P0A749, C115D); assay: Inhibition of Escherichia coli MurA C115D mutant at 50 uM using UNAG as substrate pre incubated for 15 mins followed by substrate addition and measured after 15 mins by microplate reader analysis relative to control
Staphylococcus aureus [6] = assay: Antibacterial activity against Staphylococcus aureus Newman D2C NCTC 10833 assessed as reduction in microbial growth incubated for 16 hrs by serial dilution method; format: functional
[7] = target: UDP-N-acetylglucosamine 1-carboxyvinyltransferase (Escherichia coli K-12) (UniProt P0A749); assay: Inhibition of Escherichia coli K12 His-tagged MurA expressed in Escherichia coli BL21 cells at 50 uM using UNAG as substrate pre incubated for 15 mins followed by substrate addition and measured after 15 mins by microplate reader analysis relative to control; conditions: time 30.0 min
Escherichia coli = assay: Antibacterial activity against Escherichia coli harboring tolC deletion mutant assessed as reduction in microbial growth incubated for 16 hrs by serial dilution method; format: functional
Bacteria = assay: Binding affinity to wild type U15-N labelled MurA (unknown origin) expressed in Escherichia coli at 200 uM using UNAG as substrate incubated for 90 to 150 mins by 15N-1H-HSQC NMR analysis; conditions: time 90-150 min
Clostridioides difficile [8] = assay: Bactericidal activity against Clostridioides difficile ATCC BAA1870 assessed as reduction in microbial growth by broth microdilution method; format: functional
Clostridioides difficile [9] = assay: Antibacterial activity against Clostridioides difficile NR-49294 assessed as reduction in microbial growth incubated for 48 hrs by broth microdilution method; format: functional
Clostridioides difficile [10] = assay: Antibacterial activity against Clostridioides difficile NR-49278 assessed as reduction in microbial growth incubated for 48 hrs by broth microdilution method; format: functional
Clostridioides difficile [11] = assay: Antibacterial activity against Clostridioides difficile NR-32889 assessed as reduction in microbial growth incubated for 48 hrs by broth microdilution method; format: functional
Clostridioides difficile [12] = assay: Antibacterial activity against Clostridioides difficile NR-32895 assessed as reduction in microbial growth incubated for 48 hrs by broth microdilution method; format: functional
[13] = system: Bifidobacterium angulatum; assay: Antibacterial activity against Bifidobacterium angulatum HM 1189 assessed as reduction in microbial growth incubated for 48 hrs by broth microdilution method; format: functional
Clostridioides difficile [14] = assay: Antibacterial activity against Clostridioides difficile NR-49279 assessed as reduction in microbial growth incubated for 48 hrs by broth microdilution method; format: functional
Staphylococcus aureus [15] = assay: Antibacterial activity against vancomycin resistant Staphylococcus aureus 10 assessed as reduction in microbial growth by CLSI based broth microdilution method; format: functional
Clostridioides difficile [16] = assay: Antibacterial activity against Clostridioides difficile NR-49277 assessed as reduction in microbial growth incubated for 48 hrs by broth microdilution method; format: functional
Bacteroides fragilis [17] = assay: Antibacterial activity against Bacteroides fragilis HM 719 assessed as reduction in microbial growth incubated for 48 hrs by broth microdilution method; format: functional
Clostridioides difficile [18] = assay: Bactericidal activity against Clostridioides difficile NR-32904 assessed as reduction in microbial growth by broth microdilution method; format: functional
Lactobacillus gasseri [19] = assay: Antibacterial activity against Lactobacillus gasseri HM 407 assessed as reduction in microbial growth incubated for 48 hrs by broth microdilution method; format: functional
Clostridioides difficile [20] = assay: Antibacterial activity against Clostridioides difficile ATCC 43255 assessed as reduction in microbial growth incubated for 48 hrs by broth microdilution method; format: functional
Bifidobacterium breve [21] = assay: Antibacterial activity against Bifidobacterium breve HM 412 assessed as reduction in microbial growth incubated for 48 hrs by broth microdilution method; format: functional
Clostridioides difficile [22] = assay: Bactericidal activity against Clostridioides difficile NR-49284 assessed as reduction in microbial growth by broth microdilution method; format: functional
Clostridioides difficile [23] = assay: Antibacterial activity against Clostridioides difficile NR-49286 assessed as reduction in microbial growth incubated for 48 hrs by broth microdilution method; format: functional
Lactobacillus crispatus [24] = assay: Antibacterial activity against Lactobacillus crispatus HM 420 assessed as reduction in microbial growth incubated for 48 hrs by broth microdilution method; format: functional
Bifidobacterium breve [25] = assay: Antibacterial activity against Bifidobacterium breve HM1120 assessed as reduction in microbial growth incubated for 48 hrs by broth microdilution method; format: functional
Bacteroides fragilis [26] = assay: Antibacterial activity against Bacteroides fragilis HM 718 assessed as reduction in microbial growth incubated for 48 hrs by broth microdilution method; format: functional
Clostridioides difficile [27] = assay: Antibacterial activity against Clostridioides difficile NR-49282 assessed as reduction in microbial growth incubated for 48 hrs by broth microdilution method; format: functional
Bacteroides fragilis [28] = assay: Antibacterial activity against Bacteroides fragilis HM 20 assessed as reduction in microbial growth incubated for 48 hrs by broth microdilution method; format: functional
Clostridioides difficile [29] = assay: Antibacterial activity against Clostridioides difficile HM-88 assessed as reduction in microbial growth incubated for 48 hrs by broth microdilution method; format: functional
Clostridioides difficile [30] = assay: Antibacterial activity against Clostridioides difficile NR-32903 assessed as reduction in microbial growth incubated for 48 hrs by broth microdilution method; format: functional
Clostridioides difficile [31] = assay: Antibacterial activity against Clostridioides difficile NR-49284 assessed as reduction in microbial growth incubated for 48 hrs by broth microdilution method; format: functional
Clostridioides difficile [32] = assay: Antibacterial activity against Clostridioides difficile NR-32904 assessed as reduction in microbial growth incubated for 48 hrs by broth microdilution method; format: functional
Clostridioides difficile [33] = assay: Antibacterial activity against Clostridioides difficile NR-49287 assessed as reduction in microbial growth incubated for 48 hrs by broth microdilution method; format: functional
Clostridioides difficile [34] = assay: Antibacterial activity against Clostridioides difficile NR-49283 assessed as reduction in microbial growth incubated for 48 hrs by broth microdilution method; format: functional
Clostridioides difficile [35] = assay: Bactericidal activity against Clostridioides difficile ATCC 43255 assessed as reduction in microbial growth by broth microdilution method; format: functional
Lactobacillus crispatus [36] = assay: Antibacterial activity against Lactobacillus crispatus HM 103 assessed as reduction in microbial growth incubated for 48 hrs by broth microdilution method; format: functional
Clostridioides difficile [37] = assay: Antibacterial activity against Clostridioides difficile NR-49288 assessed as reduction in microbial growth incubated for 48 hrs by broth microdilution method; format: functional
Clostridioides difficile [38] = assay: Antibacterial activity against Clostridioides difficile NR-13427 assessed as reduction in microbial growth incubated for 48 hrs by broth microdilution method; format: functional
Bacteroides fragilis [39] = assay: Antibacterial activity against Bacteroides fragilis HM 709 assessed as reduction in microbial growth incubated for 48 hrs by broth microdilution method; format: functional
Lactobacillus gasseri [40] = assay: Antibacterial activity against Lactobacillus gasseri HM 403 assessed as reduction in microbial growth incubated for 48 hrs by broth microdilution method; format: functional
Clostridioides difficile [41] = assay: Antibacterial activity against Clostridioides difficile NR-49291 assessed as reduction in microbial growth incubated for 48 hrs by broth microdilution method; format: functional
Clostridioides difficile [42] = assay: Antibacterial activity against Clostridioides difficile NR-49285 assessed as reduction in microbial growth incubated for 48 hrs by broth microdilution method; format: functional
Streptococcus pneumoniae = assay: Antibacterial activity against Streptococcus pneumoniae ATCC 700677 assessed as reduction in microbial growth by CLSI based broth microdilution method; format: functional
Clostridioides difficile [43] = assay: Bactericidal activity against Clostridioides difficile NR-49278 assessed as reduction in microbial growth by broth microdilution method; format: functional
Clostridioides difficile [44] = assay: Bactericidal activity against Clostridioides difficile NR-32895 assessed as reduction in microbial growth by broth microdilution method; format: functional
Clostridioides difficile [45] = assay: Antibacterial activity against Clostridioides difficile ATCC BAA1870 assessed as reduction in microbial growth incubated for 48 hrs by broth microdilution method; format: functional
Clostridioides difficile [46] = assay: Antibacterial activity against Clostridioides difficile NR-13436 assessed as reduction in microbial growth incubated for 48 hrs by broth microdilution method; format: functional
Bifidobacterium longum = assay: Antibacterial activity against Bifidobacterium longum HM 846 assessed as reduction in microbial growth incubated for 48 hrs by broth microdilution method; format: functional

UDP-N-acetylglucosamine 1-carboxyvinyltransferase (Escherichia coli K-12, UniProt P0A749), sequence (P0A749 whole entry): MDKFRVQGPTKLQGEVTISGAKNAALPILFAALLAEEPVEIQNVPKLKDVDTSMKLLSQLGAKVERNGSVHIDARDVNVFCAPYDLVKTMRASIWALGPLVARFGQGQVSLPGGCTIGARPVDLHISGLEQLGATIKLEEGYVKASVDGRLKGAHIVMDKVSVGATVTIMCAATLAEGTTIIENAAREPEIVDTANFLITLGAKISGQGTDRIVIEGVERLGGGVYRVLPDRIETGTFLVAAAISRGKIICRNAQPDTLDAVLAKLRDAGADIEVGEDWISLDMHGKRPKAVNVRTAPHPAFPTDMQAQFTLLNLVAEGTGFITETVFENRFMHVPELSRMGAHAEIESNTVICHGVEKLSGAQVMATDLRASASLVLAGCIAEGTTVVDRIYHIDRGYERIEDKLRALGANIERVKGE
UDP-N-acetylglucosamine 1-carboxyvinyltransferase (Escherichia coli K-12), sequence (P0A749 whole entry): as above
UDP-N-acetylglucosamine 1-carboxyvinyltransferase (Escherichia coli K-12), P0A749 [C115D], sequence (P0A749 whole entry C115D): as the sequence (P0A749 whole entry) above, with C115D counted along it
UDP-N-acetylglucosamine 1-carboxyvinyltransferase (Escherichia coli K-12, UniProt P0A749, C115D), sequence (P0A749 whole entry C115D): as the sequence (P0A749 whole entry) above, with C115D counted along it

O=C(Nc1ccc(-c2cn[nH]c2)cc1)C1CN(c2cccc(Cl)c2)N(c2cccc(Cl)c2)C1=O (stereo not drawn)
Drug uptake [1]: 11 µM
inhibition [2]: 77.2%
Drug uptake [3]: 348 nM
IC50 [4]: 12.2 µM
IC50 [5]: 12.4 µM
MIC (Staphylococcus aureus [6]): > 40 µM
inhibition [7]: 76.5%
MIC (Escherichia coli): > 40 µM

O=C1NC(=O)c2cc(NC(=O)C3CN(c4cccc(Cl)c4)N(c4cccc(Cl)c4)C3=O)ccc21 (stereo not drawn)
Drug uptake [1]: 30 µM
inhibition [2]: 74%
Drug uptake [3]: 924 nM
IC50 [4]: 11.3 µM
IC50 [5]: 12.7 µM
Activity (Bacteria): Active
MIC (Staphylococcus aureus [6]): > 40 µM
inhibition [7]: 81.6%
MIC (Escherichia coli): 17 µM

CN[C@H](CC(C)C)C(=O)N[C@H]1C(=O)N[C@@H](CC(N)=O)C(=O)N[C@H]2C(=O)N[C@H]3C(=O)N[C@H](C(=O)N[C@H](C(=O)O)c4cc(O)cc(O)c4-c4cc3ccc4O)[C@H](O)c3ccc(c(Cl)c3)Oc3cc2cc(c3O[C@@H]2O[C@H](CO)[C@@H](O)[C@H](O)[C@H]2O[C@H]2C[C@](C)(N)[C@H](O)[C@H](C)O2)Oc2ccc(cc2Cl)[C@H]1O [VANCOMYCIN]
MBC (Clostridioides difficile [8]): 2 µg/mL
MIC (Clostridioides difficile [9]): 0.25 µg/mL
MIC (Clostridioides difficile [10]): 0.5 µg/mL
MIC (Clostridioides difficile [11]): 2 µg/mL
MIC (Clostridioides difficile [12]): 2 µg/mL
MIC [13]: 1 µg/mL
MIC (Clostridioides difficile [14]): 0.25 µg/mL
MIC (Staphylococcus aureus [15]): 32 µg/mL
MIC (Clostridioides difficile [16]): 0.5 µg/mL
MIC (Bacteroides fragilis [17]): > 64 µg/mL
MBC (Clostridioides difficile [18]): 0.5 µg/mL
MIC (Lactobacillus gasseri [19]): 4 µg/mL
MIC (Clostridioides difficile [20]): 0.5 µg/mL
MIC (Bifidobacterium breve [21]): 1 µg/mL
MBC (Clostridioides difficile [22]): 0.5 µg/mL
MIC (Clostridioides difficile [23]): 0.25 µg/mL
MIC (Lactobacillus crispatus [24]): 1 µg/mL
MIC (Bifidobacterium breve [25]): 1 µg/mL
MIC (Bacteroides fragilis [26]): > 64 µg/mL
MIC (Clostridioides difficile [27]): 0.25 µg/mL
MIC (Bacteroides fragilis [28]): 64 µg/mL
MIC (Clostridioides difficile [29]): 0.5 µg/mL
MIC (Clostridioides difficile [30]): 0.5 µg/mL
MIC (Clostridioides difficile [31]): 0.5 µg/mL
MIC (Clostridioides difficile [32]): 0.5 µg/mL
MIC (Clostridioides difficile [33]): 1 µg/mL
MIC (Clostridioides difficile [34]): 0.5 µg/mL
MBC (Clostridioides difficile [35]): 1 µg/mL
MIC (Lactobacillus crispatus [36]): 1 µg/mL
MIC (Clostridioides difficile [37]): 0.5 µg/mL
MIC (Clostridioides difficile [38]): 2 µg/mL
MIC (Bacteroides fragilis [39]): 64 µg/mL
MIC (Lactobacillus gasseri [40]): 2 µg/mL
MIC (Clostridioides difficile [41]): 0.5 µg/mL
MIC (Clostridioides difficile [42]): 0.5 µg/mL
MIC (Streptococcus pneumoniae): 2 µg/mL
MBC (Clostridioides difficile [43]): 0.5 µg/mL
MBC (Clostridioides difficile [44]): 2 µg/mL
MIC (Clostridioides difficile [45]): 1 µg/mL
MIC (Clostridioides difficile [46]): 0.5 µg/mL
MIC (Bifidobacterium longum): 0.5 µg/mL
